In patent US10035801B2, “Pyrazolo compounds and uses thereof” (CONSTELLATION PHARMACEUTICALS, INC., priority 2013, dated 2018):

Each compound was assayed against T1, KDM5A (Homo sapiens, UniProt P29375) (assay: KDM5 enzyme assay, KDM5A HTRF (Example 463)). Details: compounds of Examples 1-432; read-out: Example 463 Assay KDM5A HTRF IC50.
T1 construct: Full length KDM5A enzyme was expressed and purified inhouse; made in house
Assay type: biochemical

T1 sequence (P29375 whole entry): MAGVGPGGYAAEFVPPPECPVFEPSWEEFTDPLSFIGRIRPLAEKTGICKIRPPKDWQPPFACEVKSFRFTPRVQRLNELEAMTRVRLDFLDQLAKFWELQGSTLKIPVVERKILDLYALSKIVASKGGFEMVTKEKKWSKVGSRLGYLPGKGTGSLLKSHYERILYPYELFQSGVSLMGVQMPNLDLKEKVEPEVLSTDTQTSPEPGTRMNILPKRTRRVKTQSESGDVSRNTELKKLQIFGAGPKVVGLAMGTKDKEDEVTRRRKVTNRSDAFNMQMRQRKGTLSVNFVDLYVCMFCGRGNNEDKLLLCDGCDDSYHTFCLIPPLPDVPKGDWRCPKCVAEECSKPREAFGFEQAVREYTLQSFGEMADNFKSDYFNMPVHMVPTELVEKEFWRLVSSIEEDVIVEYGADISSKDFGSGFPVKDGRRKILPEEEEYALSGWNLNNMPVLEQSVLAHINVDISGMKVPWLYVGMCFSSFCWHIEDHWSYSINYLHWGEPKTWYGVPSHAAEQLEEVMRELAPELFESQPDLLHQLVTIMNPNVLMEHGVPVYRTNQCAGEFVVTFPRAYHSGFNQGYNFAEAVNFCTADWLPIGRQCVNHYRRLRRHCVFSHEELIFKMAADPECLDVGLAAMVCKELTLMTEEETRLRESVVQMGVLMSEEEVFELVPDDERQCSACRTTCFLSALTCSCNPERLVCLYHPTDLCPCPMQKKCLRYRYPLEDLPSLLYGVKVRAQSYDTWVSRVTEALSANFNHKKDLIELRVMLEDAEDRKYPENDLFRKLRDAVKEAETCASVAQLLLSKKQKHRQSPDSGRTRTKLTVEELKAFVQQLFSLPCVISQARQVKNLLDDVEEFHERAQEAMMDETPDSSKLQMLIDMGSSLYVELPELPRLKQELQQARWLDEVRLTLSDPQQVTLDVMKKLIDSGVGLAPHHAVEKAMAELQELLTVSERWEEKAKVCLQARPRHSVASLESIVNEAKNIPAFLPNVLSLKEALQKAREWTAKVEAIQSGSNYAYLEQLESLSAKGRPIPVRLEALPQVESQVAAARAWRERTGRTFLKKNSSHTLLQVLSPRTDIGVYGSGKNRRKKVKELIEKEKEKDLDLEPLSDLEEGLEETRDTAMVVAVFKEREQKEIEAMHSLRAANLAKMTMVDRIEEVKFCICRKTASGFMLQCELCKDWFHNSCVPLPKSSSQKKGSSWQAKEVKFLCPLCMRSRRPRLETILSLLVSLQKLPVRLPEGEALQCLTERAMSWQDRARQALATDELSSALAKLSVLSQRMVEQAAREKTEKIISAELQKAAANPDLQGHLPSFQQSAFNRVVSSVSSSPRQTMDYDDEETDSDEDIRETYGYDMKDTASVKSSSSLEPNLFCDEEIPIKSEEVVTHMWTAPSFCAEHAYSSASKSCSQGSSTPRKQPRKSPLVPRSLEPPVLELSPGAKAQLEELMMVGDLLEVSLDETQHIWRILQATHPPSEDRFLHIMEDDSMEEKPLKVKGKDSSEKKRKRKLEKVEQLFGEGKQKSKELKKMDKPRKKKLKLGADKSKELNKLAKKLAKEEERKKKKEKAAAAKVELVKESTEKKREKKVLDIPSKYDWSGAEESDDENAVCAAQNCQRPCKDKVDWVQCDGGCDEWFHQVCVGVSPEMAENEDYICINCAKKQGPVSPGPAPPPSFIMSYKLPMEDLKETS

Row | IC50 [µM] | SMILES
1 | 0.047 | CC(C)c1c(-c2ccnn2CC2CC2)[nH]c2c(C#N)cnn2c1=O (single isomer, unassigned) [Example 15, 5-(1-(cyclopropylmethyl)-1H-pyrazol-5-yl)-6-isopropyl-7-oxo-4,7-dihydropyrazolo[1,5-a]pyrimidine-3-carbonitrile]
2 | 0.011 | CC(C)c1c(-c2ccn(CC3CC3)n2)[nH]c2c(C#N)cnn2c1=O (single isomer, unassigned) [Example 16, 5-(1-(cyclopropylmethyl)-1H-pyrazol-3-yl)-6-isopropyl-7-oxo-4,7-dihydropyrazolo[1,5-a]pyrimidine-3-carbonitrile]
3 | 0.14 | CC(C)NC(=O)c1ccc(-c2[nH]c3c(C#N)cnn3c(=O)c2C(C)C)cc1 [Compound 345]
4 | 0.04 | CC(C)c1c(-c2ccc(N3CCN(C)CC3)cc2)[nH]c2c(C#N)cnn2c1=O [Compound 346]
5 | 0.024 | CC(C)c1c(-c2cc(Cl)cc(C#N)c2)[nH]c2c(C#N)cnn2c1=O [Compound 347]
6 | 0.014 | CC(C)c1c(-c2cccc(CNS(C)(=O)=O)c2)[nH]c2c(C#N)cnn2c1=O [Compound 348]
7 | 0.014 | CC(C)c1c(-c2cccc(-c3ccn[nH]3)c2)[nH]c2c(C#N)cnn2c1=O [Compound 349]
8 | 0.02 | CC(C)c1c(-c2ccc(S(C)(=O)=O)cc2)[nH]c2c(C#N)cnn2c1=O [Compound 350]
9 | 0.027 | CC(C)c1c(-c2ccc(C(=O)NC3CC3)cc2)[nH]c2c(C#N)cnn2c1=O [Compound 351]
10 | 0.027 | CC(C)c1c(-c2cnn(CCF)c2)[nH]c2c(C#N)cnn2c1=O [Compound 352]
11 | 0.014 | CC(C)c1c(-c2cccc(-c3ccccc3)c2)[nH]c2c(C#N)cnn2c1=O [Compound 353]
12 | 0.077 | CC(C)c1c(-c2ccc(C(F)(F)F)c(C3CC3)c2)[nH]c2c(C#N)cnn2c1=O [Compound 354]
13 | 0.04 | CC(C)c1c(-c2cccc(OCC3CC3)c2)[nH]c2c(C#N)cnn2c1=O [Compound 355]
14 | 0.044 | CC(C)c1c(-c2cccc(OCc3ccccc3)c2)[nH]c2c(C#N)cnn2c1=O [Compound 356]
15 | 0.022 | CC(C)c1c(-c2cccc(CN3CCOCC3)c2)[nH]c2c(C#N)cnn2c1=O [Compound 357]
16 | 0.025 | CC(C)c1c(-c2cccc(COc3ccccc3)c2)[nH]c2c(C#N)cnn2c1=O [Compound 358]
17 | 0.02 | CC(C)c1c(-c2cnn(-c3cccc(F)c3)c2)[nH]c2c(C#N)cnn2c1=O [Compound 359]
18 | 0.028 | CC(C)c1c(/C=C/C2CC2)[nH]c2c(C#N)cnn2c1=O [Compound 360]
19 | 0.052 | CC(C)c1c(-c2ccc(C(F)(F)F)nc2)[nH]c2c(C#N)cnn2c1=O [Compound 361]

Row | IC50 [µM] | SMILES
20 | 0.024 | CC(C)c1c(-c2cnn(-c3ccc(F)cc3)c2)[nH]c2c(C#N)cnn2c1=O [Compound 362]
21 | 0.025 | Cc1nc(C)c(-c2[nH]c3c(C#N)cnn3c(=O)c2C(C)C)s1 [Compound 363]
22 | 0.018 | CCCn1cc(-c2[nH]c3c(C#N)cnn3c(=O)c2C(C)C)cn1 [Compound 364]
23 | 0.018 | CCCCn1cc(-c2[nH]c3c(C#N)cnn3c(=O)c2C(C)C)cn1 [Compound 365]
24 | 0.018 | CC(C)c1c(-c2cnn(CCNc3ccccc3)c2)[nH]c2c(C#N)cnn2c1=O [Compound 366]
25 | 0.025 | CC(C)c1c(-c2ccc(C(N)=O)cc2)[nH]c2c(C#N)cnn2c1=O [Compound 367]
26 | 0.075 | CNC(=O)c1ccc(-c2[nH]c3c(C#N)cnn3c(=O)c2C(C)C)cc1 [Compound 368]
27 | 0.085 | CNC(=O)c1ccc(-c2[nH]c3c(C#N)cnn3c(=O)c2C(C)C)cc1F [Compound 369]
28 | 0.008 | CC(C)c1c(-c2cnn(CCN3CC(F)(F)C3)c2)[nH]c2c(C#N)cnn2c1=O [Compound 370]
29 | 0.011 | CC(C)c1c(-c2cnn(CCN3CCC(F)(F)C3)c2)[nH]c2c(C#N)cnn2c1=O [Compound 371]
30 | 0.015 | CC(C)c1c(-c2cnn(CCNCC(F)(F)F)c2)[nH]c2c(C#N)cnn2c1=O [Compound 372]
31 | 0.024 | C/C=C/c1[nH]c2c(C#N)cnn2c(=O)c1C(C)C [Compound 373]
32 | 0.038 | CC(=O)Nc1cccc(-c2[nH]c3c(C#N)cnn3c(=O)c2C(C)C)c1 [Compound 374]
33 | 0.019 | CC(C)c1c(-c2cccc(NS(C)(=O)=O)c2)[nH]c2c(C#N)cnn2c1=O [Compound 375]
34 | 0.019 | CC(C)c1c(-c2ccc(C(=O)N3CCOCC3)cc2)[nH]c2c(C#N)cnn2c1=O [Compound 376]
35 | 0.022 | CC(=O)N1CCN(c2ccc(-c3[nH]c4c(C#N)cnn4c(=O)c3C(C)C)cc2)CC1 [Compound 377]
36 | 0.014 | CC(C)c1c(-c2cnn(CC(F)F)c2)[nH]c2c(C#N)cnn2c1=O [Compound 378]
37 | 0.011 | CC(C)c1ccc(-c2[nH]c3c(C#N)cnn3c(=O)c2C(C)C)o1 [Compound 379]
38 | 0.048 | CC(C)c1c(-c2cnn(C3CCC(F)(F)C3)c2)[nH]c2c(C#N)cnn2c1=O (stereo not drawn) [Compound 380]

Row | IC50 [µM] | SMILES
39 | 0.03 | CC(C)c1c(-c2cnn([C@H]3CC[C@@H](O)C3)c2)[nH]c2c(C#N)cnn2c1=O [Compound 381]
40 | 0.048 | CC(C)c1c(-c2cnn([C@H]3CC[C@H](O)C3)c2)[nH]c2c(C#N)cnn2c1=O [Compound 382]
41 | 0.031 | CC(C)c1c(-c2cccc(-c3cn[nH]c3)c2)[nH]c2c(C#N)cnn2c1=O [Compound 383]
42 | 0.013 | CC(C)c1c(-c2ccc(Br)o2)[nH]c2c(C#N)cnn2c1=O [Compound 384]
43 | 0.021 | CC(C)c1c(-c2cccc(Nc3ccccc3)c2)[nH]c2c(C#N)cnn2c1=O [Compound 385]
44 | 0.012 | Cc1ncc(-c2[nH]c3c(C#N)cnn3c(=O)c2C(C)C)s1 [Compound 386]
45 | 0.13 | CC(C)c1c(-c2cccc(C#Cc3ccccc3)c2)[nH]c2c(C#N)cnn2c1=O [Compound 387]
46 | 0.025 | CC(C)c1c(-c2cccc(CCc3ccccc3)c2)[nH]c2c(C#N)cnn2c1=O [Compound 388]
47 | 0.033 | CC(C)c1c(-c2cnn(C3CCC(F)C3)c2)[nH]c2c(C#N)cnn2c1=O (stereo not drawn) [Compound 389]
48 | 0.055 | COCC(C)(C)n1cc(-c2[nH]c3c(C#N)cnn3c(=O)c2C(C)C)cn1 [Compound 390]
49 | 0.011 | C=CC(=O)N1CC(n2cc(-c3[nH]c4c(C#N)cnn4c(=O)c3C(C)C)cn2)C1 [Compound 391]
50 | 0.02 | CCC(=O)N1CC(n2cc(-c3[nH]c4c(C#N)cnn4c(=O)c3C(C)C)cn2)C1 [Compound 392]
51 | 0.012 | CC(C)c1c(-c2ccc(=O)[nH]c2)[nH]c2c(C#N)cnn2c1=O [Compound 393]
52 | 0.02 | CC(C)c1c(-c2cccc(/C=C/c3ccccc3)c2)[nH]c2c(C#N)cnn2c1=O [Compound 394]
53 | 0.01 | CC(C)c1c(-c2ccc(N3CCNCC3)cc2)[nH]c2c(C#N)cnn2c1=O [Compound 395]
54 | 0.034 | CC(C)c1c(-c2cnn(C(C)(C)CF)c2)[nH]c2c(C#N)cnn2c1=O [Compound 396]
55 | 0.032 | CC(C)c1c(-c2c[nH]nc2C(F)(F)F)[nH]c2c(C#N)cnn2c1=O [Compound 397]
56 | 0.041 | Cc1cc(C)cc(-c2[nH]c3c(C#N)cnn3c(=O)c2C(C)C)c1 [Compound 398]
57 | 0.054 | CC(C)c1c(-c2ccc(S(=O)(=O)N3CCOCC3)cc2)[nH]c2c(C#N)cnn2c1=O [Compound 399]
